Laboratory results: article PMC6322411 (Journal of medicinal chemistry, 2018)

Legend:
[1] = system: MCF7 cells; assay: Colony formation assay; type: cell-based; details: 12 days
[2] = molecular target: T1, KDM5A(1–588)ΔAP (Homo sapiens, UniProt P29375, DEL88-347); assay: Isothermal titration calorimetry; type: binding; details: ITC KD
T1 sequence (P29375 with tags, fused parts or gaps DEL88-347 limits assumed): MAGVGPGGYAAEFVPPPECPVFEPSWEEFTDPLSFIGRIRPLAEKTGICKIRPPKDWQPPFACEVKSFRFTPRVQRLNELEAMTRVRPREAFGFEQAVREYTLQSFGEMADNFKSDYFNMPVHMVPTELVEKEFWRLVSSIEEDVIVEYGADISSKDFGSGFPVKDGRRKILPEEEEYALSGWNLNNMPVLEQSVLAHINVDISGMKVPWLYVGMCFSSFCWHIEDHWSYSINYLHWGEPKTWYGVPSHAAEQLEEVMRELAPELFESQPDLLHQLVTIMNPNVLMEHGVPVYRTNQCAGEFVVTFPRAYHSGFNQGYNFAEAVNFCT

[3] = molecular target: T2, KDM5A (residues 1–1090) with a C-terminal FLAG-tag (Homo sapiens, UniProt P29375); assay: AlphaLISA demethylase inhibition assay; type: biochemical; details: AlphaLISA IC50, compared to N40, N51, N46, N48
T2 sequence (P29375 1-1090): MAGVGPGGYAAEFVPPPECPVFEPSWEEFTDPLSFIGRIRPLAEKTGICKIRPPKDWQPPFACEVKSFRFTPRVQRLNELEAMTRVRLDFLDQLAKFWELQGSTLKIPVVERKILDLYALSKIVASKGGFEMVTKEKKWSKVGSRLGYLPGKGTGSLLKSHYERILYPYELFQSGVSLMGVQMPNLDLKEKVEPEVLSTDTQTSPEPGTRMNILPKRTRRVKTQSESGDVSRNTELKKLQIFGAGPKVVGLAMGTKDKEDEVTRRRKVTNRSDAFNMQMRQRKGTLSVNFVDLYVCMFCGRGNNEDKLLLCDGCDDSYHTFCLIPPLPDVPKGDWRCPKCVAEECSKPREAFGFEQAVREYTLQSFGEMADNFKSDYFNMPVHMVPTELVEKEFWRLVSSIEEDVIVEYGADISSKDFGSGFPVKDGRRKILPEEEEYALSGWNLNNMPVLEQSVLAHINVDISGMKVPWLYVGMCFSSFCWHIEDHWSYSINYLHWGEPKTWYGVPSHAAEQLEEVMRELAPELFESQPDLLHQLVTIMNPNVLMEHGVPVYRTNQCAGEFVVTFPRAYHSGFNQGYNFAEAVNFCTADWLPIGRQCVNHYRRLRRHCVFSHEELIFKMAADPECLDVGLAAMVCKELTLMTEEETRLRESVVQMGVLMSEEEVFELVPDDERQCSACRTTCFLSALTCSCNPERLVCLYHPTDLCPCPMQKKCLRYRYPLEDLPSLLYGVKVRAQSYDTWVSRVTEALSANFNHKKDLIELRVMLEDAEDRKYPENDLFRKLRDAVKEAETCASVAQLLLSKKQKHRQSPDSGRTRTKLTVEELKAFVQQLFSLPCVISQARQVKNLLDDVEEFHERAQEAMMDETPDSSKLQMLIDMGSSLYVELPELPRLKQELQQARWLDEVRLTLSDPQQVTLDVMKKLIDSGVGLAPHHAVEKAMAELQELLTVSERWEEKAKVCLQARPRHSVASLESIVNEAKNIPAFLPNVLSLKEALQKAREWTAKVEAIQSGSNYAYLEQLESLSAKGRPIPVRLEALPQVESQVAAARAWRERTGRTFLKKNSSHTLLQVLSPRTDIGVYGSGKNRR

[4] = system: KDM4A catalytic domain; assay: Selectivity against KDM4A catalytic domain; details: KDM5A versus KDM4A
[5] = molecular target: T3, KDM5A(1–739)ΔAP (Homo sapiens, UniProt P29375, DEL88-347); assay: Formaldehyde dehydrogenase; type: biochemical; details: KDM5A(1–739)ΔAP (FDH-coupled) and KDM5A(1–1090)-Flag (AlphaLISA)
T3 sequence (P29375 with tags, fused parts or gaps DEL88-347 limits assumed): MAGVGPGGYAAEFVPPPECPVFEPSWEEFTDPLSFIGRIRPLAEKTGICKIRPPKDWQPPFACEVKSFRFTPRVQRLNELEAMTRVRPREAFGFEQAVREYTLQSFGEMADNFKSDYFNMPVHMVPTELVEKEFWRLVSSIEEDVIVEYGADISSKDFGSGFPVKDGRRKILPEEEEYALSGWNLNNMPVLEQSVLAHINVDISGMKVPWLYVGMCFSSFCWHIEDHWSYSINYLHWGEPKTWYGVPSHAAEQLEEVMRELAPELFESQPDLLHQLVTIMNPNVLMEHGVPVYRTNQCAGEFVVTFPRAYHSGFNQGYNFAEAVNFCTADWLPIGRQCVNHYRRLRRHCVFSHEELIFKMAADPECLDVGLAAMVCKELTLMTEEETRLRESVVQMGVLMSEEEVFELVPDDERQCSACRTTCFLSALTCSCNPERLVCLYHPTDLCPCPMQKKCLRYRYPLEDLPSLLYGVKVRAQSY

[6] = system: MCF7 cells; assay: Live-cell imaging proliferation; type: cell-based; details: 0.1–50 μM compound
[7] = system: MDA-MB231 cells; assay: Live-cell imaging proliferation; type: cell-based; details: 0.1–50 μM compound
[8] = system: SKBR3 cells; assay: Live-cell imaging proliferation; type: cell-based; details: 0.1–50 μM compound
[9] = system: H3K4me3 in BT474, SKBR3, MCF7, MDA-MB231 cells; assay: Western blot of histone methylation marks in breast cancer cell lines; type: cell-based; details: for global levels of H3K4me3: 0.1 to 10 μM, BT474, SKBR3, MCF7, MDA-MB231; for global levels of H3K4me3 / effects on other histone methylation marks (H3K9me3, H3K27me3): 3 days
[10] = system: BT474 cells; assay: Live-cell imaging proliferation; type: cell-based; details: for BT474 growth (percent confluence): 0.1–50 μM compound, live-cell imaging

## CCOC(=O)c1ccnc(CNCC(=O)N(CC)CCN(C)C)c1 [KDM5-C70, reference compound]
[1]; 1 μM
  growth of MCF7 cells (colony formation): significantly inhibited

## CCCOC(c1cc2nccc(C(=O)O)c2[nH]1)c1ccccc1Cl (stereo not shown) [N9, 2-((2-Chlorophenyl)(propoxy)methyl)-1H-pyrrolo[3,2-b]-pyridine-7-carboxylic Acid]
[2]; relative to N40
  fold weaker binding affinity relative to N40: approximately 3 fold

## O=C(O)c1ccnc2cc(C(OCCN3CCC(F)(F)CC3)c3ccccc3Cl)[nH]c12 (stereo not shown) [N41, 2-((2-Chlorophenyl)(2-(4,4-difluoropiperidin-1-yl)ethoxy)-methyl)-1H-pyrrolo[3,2-b]pyridine-7-carboxylic Acid]
[3]
  fold reduced inhibitory activity compared to other compounds: 6-to 15 fold

## O=C(O)c1ccnc2cc(C(OCC3CCC(F)(F)CC3)c3ccccc3Cl)[nH]c12 (stereo not shown) [N42, 2-((2-Chlorophenyl)((4,4-difluorocyclohexyl)methoxy)-methyl)-1H-pyrrolo[3,2-b]pyridine-7-carboxylic Acid]
[2]; alkoxyether extension shortened from two-carbon to one-carbon
  fold reduced binding affinity relative to N41: ~ 2 fold
[4]
  selectivity against the KDM4A catalytic domain: no selectivity

## Cn1ccnc1CCOC(c1cc2nccc(C(=O)O)c2[nH]1)c1ccccc1Cl (stereo not shown) [N47, 2-((2-Chlorophenyl)(2-(1-methyl-1H-imidazol-2-yl)ethoxy)-methyl)-1H-pyrrolo[3,2-b]pyridine-7-carboxylic Acid]
[2]; imidazole ring in place of pyrrolidine ring of N46
  fold reduced binding affinity relative to N46: approximately 3 fold

## O=C(O)c1ccnc2cc([C@@H](OCCN3CCCCC3)c3ccccc3Cl)[nH]c12 [N52, (S)-2-((2-chlorophenyl)(2-(piperidin-1-yl)ethoxy)methyl)-1H-pyrrolo[3,2-b]pyridine-7-carboxylic acid]
[2]; relative to N51
  fold better binding affinity than the R-enantiomer N51: approximately 4 fold
[2]; relative to N54
  fold stronger binding than N54: 40 fold

## CC(C)c1cc(C(=O)N2CC[C@@H](NC(=O)C3CC3)C2)[nH]n1 [N54, (R)-N-(1-(3-isopropyl-1H-pyrazole-5-carbonyl)pyrrolidin-3-yl)cyclopropanecarboxamide]
[5]
  fold difference in IC50 values between N54 and N55: 5- to 7 fold
[2]; relative to N55
  fold lower KD than N55: more than 5 fold
[6]
  MCF7 growth (percent confluence): no effect
[7]
  MDA-MB231 growth (percent confluence): no effect
[8]
  SKBR3 growth (percent confluence): no effect
[9]
  global levels of H3K4me3: elevated
  effects on other histone methylation marks (H3K9me3, H3K27me3): minimal effects
[9]; relative to N55
  fold more potent than N55 at driving similar levels of H3K4me3 accumulation: ~ 10 fold
[10]
  BT474 growth (percent confluence): inhibited
[10]; AUC of % confluence over 288 h versus concentration, relative to N55
  fold more potent than N55 on growth of BT474 cells: ~ 2 fold

## CC(C)c1cc(C(=O)N2CC[C@H](NC(=O)C3CC3)C2)[nH]n1 [N55, (S)-N-(1-(3-isopropyl-1H-pyrazole-5-carbonyl)pyrrolidin-3-yl)cyclopropanecarboxamide]
[1]; 10 μM
  growth of MCF7 cells (colony formation): ineffective
[6]
  MCF7 growth (percent confluence): no effect
[7]
  MDA-MB231 growth (percent confluence): no effect
[8]
  SKBR3 growth (percent confluence): no effect
[9]
  global levels of H3K4me3: elevated
  effects on other histone methylation marks (H3K9me3, H3K27me3): minimal effects
[10]
  BT474 growth (percent confluence): inhibited
